According to ChEMBL document CHEMBL5325488, “Discovery of SMD-3040 as a Potent and Selective SMARCA2 PROTAC Degrader with Strong in vivo Antitumor Activity” (J Med Chem, 2023):
Blank lines part the entries; values can stand above or below the compound they belong to.

How the values were obtained:
NCI-H1944 [1] = assay: Antiproliferative activity against SMARCA4-deficient human NCI-H1944 cells assessed as cell growth inhibition measured after 7 days by WST-8 assay; assay type: functional; settings: NCI-H1944, 168 h, time 7 day
[2] = target: T1, von Hippel-Lindau disease tumor suppressor/SWI/SNF-related matrix-associated actin-dependent regulator of chromatin subfamily A member 2 (Homo sapiens, UniProt P51531+P40337); assay: PROTAC activity at VHL/C-terminal HiBiT fused SMARCA2 in human HeLa cells assessed as induction of SMARCA2 degradation by measuring maximal efficacy incubated for 24 hrs by Nano-Glo HiBiT analysis relative to control; assay type: cell-based
Target sequence in this assay (P40337 whole entry, looked up, the tested form may be a part): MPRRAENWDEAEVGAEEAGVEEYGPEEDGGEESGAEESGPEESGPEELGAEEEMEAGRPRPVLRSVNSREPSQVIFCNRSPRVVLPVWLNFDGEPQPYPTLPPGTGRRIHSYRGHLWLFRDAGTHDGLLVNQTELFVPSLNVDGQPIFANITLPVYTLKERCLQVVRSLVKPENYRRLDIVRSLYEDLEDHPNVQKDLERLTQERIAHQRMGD
Target sequence in this assay (P51531 whole entry, looked up, the tested form may be a part): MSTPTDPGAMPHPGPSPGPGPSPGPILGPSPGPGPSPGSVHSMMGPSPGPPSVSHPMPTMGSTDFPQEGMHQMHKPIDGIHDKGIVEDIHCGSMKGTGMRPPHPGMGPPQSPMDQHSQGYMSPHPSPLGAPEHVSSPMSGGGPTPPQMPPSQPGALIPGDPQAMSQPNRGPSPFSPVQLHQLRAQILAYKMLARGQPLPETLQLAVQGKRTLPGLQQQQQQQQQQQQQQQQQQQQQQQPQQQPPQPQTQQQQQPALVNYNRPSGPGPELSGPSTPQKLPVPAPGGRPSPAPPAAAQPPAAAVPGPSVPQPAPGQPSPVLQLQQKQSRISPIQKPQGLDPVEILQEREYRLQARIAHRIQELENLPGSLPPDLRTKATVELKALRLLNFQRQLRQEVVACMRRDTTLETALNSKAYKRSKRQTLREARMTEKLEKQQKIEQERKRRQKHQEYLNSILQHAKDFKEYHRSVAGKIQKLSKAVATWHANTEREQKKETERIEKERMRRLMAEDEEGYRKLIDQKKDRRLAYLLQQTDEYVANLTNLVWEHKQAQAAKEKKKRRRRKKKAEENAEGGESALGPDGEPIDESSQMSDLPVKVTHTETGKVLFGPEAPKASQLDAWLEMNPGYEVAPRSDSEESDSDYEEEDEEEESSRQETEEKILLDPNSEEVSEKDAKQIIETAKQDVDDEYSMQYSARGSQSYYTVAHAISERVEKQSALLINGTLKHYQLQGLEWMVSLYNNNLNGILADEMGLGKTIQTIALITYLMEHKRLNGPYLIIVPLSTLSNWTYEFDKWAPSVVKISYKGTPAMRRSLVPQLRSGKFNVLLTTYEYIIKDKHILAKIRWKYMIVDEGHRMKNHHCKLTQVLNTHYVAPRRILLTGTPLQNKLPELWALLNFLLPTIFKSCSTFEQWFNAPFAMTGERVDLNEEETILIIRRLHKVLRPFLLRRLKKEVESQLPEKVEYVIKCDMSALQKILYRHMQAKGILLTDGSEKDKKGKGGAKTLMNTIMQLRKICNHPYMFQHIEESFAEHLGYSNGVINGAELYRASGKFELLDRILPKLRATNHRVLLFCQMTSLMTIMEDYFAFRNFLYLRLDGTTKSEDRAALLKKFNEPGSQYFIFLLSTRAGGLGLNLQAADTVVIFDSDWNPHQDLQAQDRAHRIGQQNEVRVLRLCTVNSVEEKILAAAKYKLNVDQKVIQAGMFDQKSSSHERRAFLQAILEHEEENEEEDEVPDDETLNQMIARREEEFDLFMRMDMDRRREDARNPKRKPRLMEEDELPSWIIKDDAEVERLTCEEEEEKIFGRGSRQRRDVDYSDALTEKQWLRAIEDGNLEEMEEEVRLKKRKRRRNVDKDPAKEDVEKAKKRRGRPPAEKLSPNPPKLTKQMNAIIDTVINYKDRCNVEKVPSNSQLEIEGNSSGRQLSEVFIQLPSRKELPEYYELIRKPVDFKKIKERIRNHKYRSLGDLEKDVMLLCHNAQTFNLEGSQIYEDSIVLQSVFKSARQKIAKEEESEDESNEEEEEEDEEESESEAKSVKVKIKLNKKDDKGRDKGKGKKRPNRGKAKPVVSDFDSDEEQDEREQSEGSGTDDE

SK-MEL-28 [3] = assay: Antiproliferative activity against human SK-MEL-28 cells expressing wild-type SMARCA2 assessed as cell growth inhibition by measuring maximal efficacy measured after 7 days by WST-8 assay relative to control; assay type: functional; settings: time 7 day
[4] = target: T2, von Hippel-Lindau disease tumor suppressor/SWI/SNF-related matrix-associated actin-dependent regulator of chromatin subfamily A member 4 (Homo sapiens, UniProt P51532+P40337); assay: PROTAC activity at VHL/SMARCA4 in human SW1573 cells assessed as induction of […] degradation incubated for 20 hrs by Western blotting analysis; assay type: cell-based
[5] = target: T1, von Hippel-Lindau disease tumor suppressor/SWI/SNF-related matrix-associated actin-dependent regulator of chromatin subfamily A member 2; assay: PROTAC activity at VHL/C-terminal HiBiT fused SMARCA2 in human HeLa cells assessed as induction of SMARCA2 degradation incubated for 24 hrs by Nano-Glo HiBiT analysis; assay type: cell-based
[6] = target: T2, von Hippel-Lindau disease tumor suppressor/SWI/SNF-related matrix-associated actin-dependent regulator of chromatin subfamily A member 4; assay: PROTAC activity at VHL/C-terminal HiBiT fused SMARCA4 in human HeLa cells assessed as induction of SMARCA4 degradation incubated for 24 hrs by Nano-Glo HiBiT analysis; assay type: cell-based
NCI-H1975 [7] = assay: Antiproliferative activity against human NCI-H1975 cells expressing wild-type SMARCA2 assessed as cell growth inhibition by measuring maximal efficacy measured after 7 days by WST-8 assay relative to control; assay type: functional; settings: time 7 day
[8] = target: T1, von Hippel-Lindau disease tumor suppressor/SWI/SNF-related matrix-associated actin-dependent regulator of chromatin subfamily A member 2; assay: PROTAC activity at VHL/C-terminal HiBiT fused SMARCA2 in human HeLa cells assessed as induction of SMARCA2 degradation at 0.000001 to 1 uM by Nano-Glo HiBiT analysis; assay type: cell-based; settings: dose lower 1e-06 µM, dose upper 1.0 µM, time 6-48 hrs, TDE = time-dependent effect
Target sequence in this assay (P40337 whole entry, looked up, the tested form may be a part): as the sequence (P40337 whole entry, looked up, the tested form may be a part) above
Target sequence in this assay (P51531 whole entry, looked up, the tested form may be a part): as the sequence (P51531 whole entry, looked up, the tested form may be a part) above

NCI-H1975 [9] = assay: Antiproliferative activity against human NCI-H1975 cells expressing wild-type SMARCA2 assessed as cell growth inhibition measured after 7 days by WST-8 assay; assay type: functional; settings: NCI-H1975, 168 h, time 7 day
SK-MEL-28 [10] = assay: Antiproliferative activity against human SK-MEL-28 cells expressing wild-type SMARCA2 assessed as cell growth inhibition measured after 7 days by WST-8 assay; assay type: functional; settings: SK-MEL-28, 168 h, time 7 day
[11] = target: T1, von Hippel-Lindau disease tumor suppressor/SWI/SNF-related matrix-associated actin-dependent regulator of chromatin subfamily A member 2; assay: PROTAC activity at VHL/SMARCA2 in human SW1573 cells assessed as induction of SMARCA2 degradation incubated for 20 hrs by Western blotting analysis; assay type: cell-based
[12] = target: T2, von Hippel-Lindau disease tumor suppressor/SWI/SNF-related matrix-associated actin-dependent regulator of chromatin subfamily A member 4; assay: PROTAC activity at VHL/SMARCA4 in human SW1573 cells assessed as induction of […] degradation by measuring maximal efficacy incubated for 20 hrs by Western blotting analysis relative to control; assay type: cell-based
Target sequence in this assay (P40337 whole entry, looked up, the tested form may be a part): as the sequence (P40337 whole entry, looked up, the tested form may be a part) above
Target sequence in this assay (P51532 whole entry, looked up, the tested form may be a part): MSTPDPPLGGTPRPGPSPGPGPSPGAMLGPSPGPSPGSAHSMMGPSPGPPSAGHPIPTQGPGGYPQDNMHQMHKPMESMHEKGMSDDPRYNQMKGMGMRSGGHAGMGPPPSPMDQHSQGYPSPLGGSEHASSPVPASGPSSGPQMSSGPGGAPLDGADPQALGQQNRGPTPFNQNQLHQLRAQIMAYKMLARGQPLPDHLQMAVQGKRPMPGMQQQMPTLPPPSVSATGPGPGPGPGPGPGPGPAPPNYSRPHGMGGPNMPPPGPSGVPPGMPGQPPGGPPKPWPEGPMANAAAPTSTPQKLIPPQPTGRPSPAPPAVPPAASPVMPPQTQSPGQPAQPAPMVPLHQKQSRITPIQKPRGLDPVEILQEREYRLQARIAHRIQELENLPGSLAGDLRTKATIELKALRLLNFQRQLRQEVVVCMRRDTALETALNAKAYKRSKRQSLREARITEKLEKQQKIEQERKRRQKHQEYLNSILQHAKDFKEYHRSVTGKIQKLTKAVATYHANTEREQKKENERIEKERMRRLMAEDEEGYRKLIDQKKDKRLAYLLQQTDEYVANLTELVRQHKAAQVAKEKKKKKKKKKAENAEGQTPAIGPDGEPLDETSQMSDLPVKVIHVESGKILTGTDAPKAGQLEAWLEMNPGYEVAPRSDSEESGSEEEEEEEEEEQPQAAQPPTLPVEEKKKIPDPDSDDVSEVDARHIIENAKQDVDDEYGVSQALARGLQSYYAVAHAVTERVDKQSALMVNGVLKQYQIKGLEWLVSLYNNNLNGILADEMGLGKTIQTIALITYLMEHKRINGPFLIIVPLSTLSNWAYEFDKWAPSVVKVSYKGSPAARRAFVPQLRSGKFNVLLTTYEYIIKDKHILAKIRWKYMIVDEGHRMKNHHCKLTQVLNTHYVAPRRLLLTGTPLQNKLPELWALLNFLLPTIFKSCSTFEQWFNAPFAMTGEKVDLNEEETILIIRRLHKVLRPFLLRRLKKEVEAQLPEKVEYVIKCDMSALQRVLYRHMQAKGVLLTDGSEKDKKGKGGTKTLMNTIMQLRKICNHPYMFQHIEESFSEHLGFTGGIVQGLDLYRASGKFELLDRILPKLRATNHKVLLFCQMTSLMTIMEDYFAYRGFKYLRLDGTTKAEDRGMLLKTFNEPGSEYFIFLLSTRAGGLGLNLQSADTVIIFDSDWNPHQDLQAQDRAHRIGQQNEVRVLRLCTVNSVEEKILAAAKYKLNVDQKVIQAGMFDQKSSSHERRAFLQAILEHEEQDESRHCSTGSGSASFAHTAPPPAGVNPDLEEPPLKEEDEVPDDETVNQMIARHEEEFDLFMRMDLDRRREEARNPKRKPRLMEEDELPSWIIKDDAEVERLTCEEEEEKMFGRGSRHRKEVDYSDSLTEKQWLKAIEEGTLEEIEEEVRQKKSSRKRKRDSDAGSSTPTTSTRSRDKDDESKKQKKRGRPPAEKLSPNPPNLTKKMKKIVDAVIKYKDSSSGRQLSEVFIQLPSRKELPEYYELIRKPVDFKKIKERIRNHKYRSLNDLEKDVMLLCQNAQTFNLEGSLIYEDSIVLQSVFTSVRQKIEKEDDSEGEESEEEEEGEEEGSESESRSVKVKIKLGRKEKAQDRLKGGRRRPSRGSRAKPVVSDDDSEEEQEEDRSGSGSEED

SK-MEL-5 [13] = assay: Antiproliferative activity against SMARCA4-deficient human SK-MEL-5 cells assessed as cell growth inhibition measured after 7 days by WST-8 assay; assay type: functional; settings: SK-MEL-5, 168 h, time 7 day
A549 [14] = assay: Antiproliferative activity against SMARCA4-deficient human A549 cells assessed as cell growth inhibition measured after 7 days by WST-8 assay; assay type: functional; settings: A549, 168 h, time 7 day
[15] = target: T2, von Hippel-Lindau disease tumor suppressor/SWI/SNF-related matrix-associated actin-dependent regulator of chromatin subfamily A member 4; assay: PROTAC activity at VHL/C-terminal HiBiT fused SMARCA4 in human HeLa cells assessed as induction of SMARCA4 degradation by measuring maximal efficacy incubated for 24 hrs by Nano-Glo HiBiT analysis relative to control; assay type: cell-based
Target sequence in this assay (P40337 whole entry, looked up, the tested form may be a part): as the sequence (P40337 whole entry, looked up, the tested form may be a part) above
Target sequence in this assay (P51532 whole entry, looked up, the tested form may be a part): as the sequence (P51532 whole entry, looked up, the tested form may be a part) above

[16] = Antiproliferative activity against SMARCA4-deficient human NCI-H1568 cells assessed as cell growth inhibition by measuring maximal efficacy measured after 7 days by WST-8 assay relative to control; assay type: functional; settings: time 7 day
NCI-H1792 [17] = assay: Antiproliferative activity against human NCI-H1792 cells expressing wild-type SMARCA2 assessed as cell growth inhibition by measuring maximal efficacy measured after 7 days by WST-8 assay relative to control; assay type: functional; settings: time 7 day
[18] = target: T2, von Hippel-Lindau disease tumor suppressor/SWI/SNF-related matrix-associated actin-dependent regulator of chromatin subfamily A member 4; assay: PROTAC activity at VHL/C-terminal HiBiT fused SMARCA4 in human HeLa cells assessed as induction of SMARCA4 degradation incubated for 6 to 48 hrs by Nano-Glo HiBiT analysis; assay type: cell-based; settings: dose lower 1e-05 µM, dose upper 1.0 µM, time 6-48 hrs
Target sequence in this assay (P40337 whole entry, looked up, the tested form may be a part): as the sequence (P40337 whole entry, looked up, the tested form may be a part) above
Target sequence in this assay (P51532 whole entry, looked up, the tested form may be a part): as the sequence (P51532 whole entry, looked up, the tested form may be a part) above

[19] = target: T1, von Hippel-Lindau disease tumor suppressor/SWI/SNF-related matrix-associated actin-dependent regulator of chromatin subfamily A member 2; assay: PROTAC activity at VHL/SMARCA2 in human SW1573 cells assessed as induction of SMARCA2 degradation by measuring maximal efficacy incubated for 20 hrs by Western blotting analysis relative to control; assay type: cell-based
Target sequence in this assay (P40337 whole entry, looked up, the tested form may be a part): as the sequence (P40337 whole entry, looked up, the tested form may be a part) above
Target sequence in this assay (P51531 whole entry, looked up, the tested form may be a part): as the sequence (P51531 whole entry, looked up, the tested form may be a part) above

NCI-H1793 [20] = assay: Antiproliferative activity against SMARCA4-deficient human NCI-H1793 cells assessed as cell growth inhibition measured after 7 days by WST-8 assay; assay type: functional; settings: NCI-H1793, 168 h, time 7 day
NCI-H647 [21] = assay: Antiproliferative activity against human NCI-H647 cells expressing wild-type SMARCA2 assessed as cell growth inhibition measured after 7 days by WST-8 assay; assay type: functional; settings: NCI-H647, 168 h, time 7 day
[22] = target: T1, von Hippel-Lindau disease tumor suppressor/SWI/SNF-related matrix-associated actin-dependent regulator of chromatin subfamily A member 2; assay: PROTAC activity at VHL/C-terminal HiBiT fused SMARCA2 in human HeLa cells assessed as induction of SMARCA2 degradation incubated for 6 to 48 hrs by Nano-Glo HiBiT analysis; assay type: cell-based; settings: dose lower 1e-06 µM, dose upper 1.0 µM, time 6-48 hrs
Target sequence in this assay (P40337 whole entry, looked up, the tested form may be a part): as the sequence (P40337 whole entry, looked up, the tested form may be a part) above
Target sequence in this assay (P51531 whole entry, looked up, the tested form may be a part): as the sequence (P51531 whole entry, looked up, the tested form may be a part) above

[23] = target: T2, von Hippel-Lindau disease tumor suppressor/SWI/SNF-related matrix-associated actin-dependent regulator of chromatin subfamily A member 4; assay: PROTAC activity at VHL/C-terminal HiBiT fused SMARCA4 in human HeLa cells assessed as induction of SMARCA4 degradation at 0.00001 to 1 uM by Nano-Glo HiBiT analysis; assay type: cell-based; settings: dose lower 1e-05 µM, dose upper 1.0 µM, time 6-48 hrs, TDE = time-dependent effect
Target sequence in this assay (P40337 whole entry, looked up, the tested form may be a part): as the sequence (P40337 whole entry, looked up, the tested form may be a part) above
Target sequence in this assay (P51532 whole entry, looked up, the tested form may be a part): as the sequence (P51532 whole entry, looked up, the tested form may be a part) above

NCI-H1693 [24] = assay: Antiproliferative activity against SMARCA4-deficient human NCI-H1693 cells assessed as cell growth inhibition measured after 7 days by WST-8 assay; assay type: functional; settings: NCI-H1693, 168 h, time 7 day
NCI-H1299 [25] = assay: Antiproliferative activity against SMARCA4-deficient human NCI-H1299 cells assessed as cell growth inhibition measured after 7 days by WST-8 assay; assay type: functional; settings: NCI-H1299, 168 h, time 7 day
NCI-H1693 [26] = assay: Antiproliferative activity against SMARCA4-deficient human NCI-H1693 cells assessed as cell growth inhibition by measuring maximal efficacy measured after 7 days by WST-8 assay relative to control; assay type: functional; settings: time 7 day
NCI-H1793 [27] = assay: Antiproliferative activity against SMARCA4-deficient human NCI-H1793 cells assessed as cell growth inhibition by measuring maximal efficacy measured after 7 days by WST-8 assay relative to control; assay type: functional; settings: time 7 day
A549 [28] = assay: Antiproliferative activity against SMARCA4-deficient human A549 cells assessed as cell growth inhibition by measuring maximal efficacy measured after 7 days by WST-8 assay relative to control; assay type: functional; settings: time 7 day
SK-MEL-5 [29] = assay: Antiproliferative activity against SMARCA4-deficient human SK-MEL-5 cells assessed as cell growth inhibition by measuring maximal efficacy measured after 7 days by WST-8 assay relative to control; assay type: functional; settings: time 7 day
NCI-H1944 [30] = assay: Antiproliferative activity against SMARCA4-deficient human NCI-H1944 cells assessed as cell growth inhibition by measuring maximal efficacy measured after 7 days by WST-8 assay relative to control; assay type: functional; settings: time 7 day
NCI-H647 [31] = assay: Antiproliferative activity against human NCI-H647 cells expressing wild-type SMARCA2 assessed as cell growth inhibition by measuring maximal efficacy measured after 7 days by WST-8 assay relative to control; assay type: functional; settings: time 7 day
NCI-H838 [32] = assay: Antiproliferative activity against SMARCA4-deficient human NCI-H838 cells assessed as cell growth inhibition measured after 7 days by WST-8 assay; assay type: functional; settings: NCI-H838, 168 h, time 7 day
NCI-H838 [33] = assay: Antiproliferative activity against SMARCA4-deficient human NCI-H838 cells assessed as cell growth inhibition by measuring maximal efficacy measured after 7 days by WST-8 assay relative to control; assay type: functional; settings: time 7 day
NCI-H1792 [34] = assay: Antiproliferative activity against human NCI-H1792 cells expressing wild-type SMARCA2 assessed as cell growth inhibition measured after 7 days by WST-8 assay; assay type: functional; settings: NCI-H1792, 168 h, time 7 day
[35] = Antiproliferative activity against SMARCA4-deficient human NCI-H1568 cells assessed as cell growth inhibition measured after 7 days by WST-8 assay; assay type: functional; settings: NCI-H1568, 168 h, time 7 day
NCI-H1299 [36] = assay: Antiproliferative activity against SMARCA4-deficient human NCI-H1299 cells assessed as cell growth inhibition by measuring maximal efficacy measured after 7 days by WST-8 assay relative to control; assay type: functional; settings: time 7 day
[37] = target: SWI/SNF-related matrix-associated actin-dependent regulator of chromatin subfamily A member 4 (Homo sapiens, UniProt P51532); assay: Binding affinity to SMARCA4 (unknown origin)
[38] = target: SWI/SNF-related matrix-associated actin-dependent regulator of chromatin subfamily A member 2 (Homo sapiens, UniProt P51531); assay: Binding affinity to SMARCA2 (unknown origin)

GI50 (NCI-H1944 [1]): 0.9 nM
Emax [2]: 96%
DC50 [4]: 1.1 nM
DC50 [5]: 0.12 nM
DC50 [6]: 2 nM
Activity [8]: Tde
GI50 (NCI-H1975 [9]): 18 nM
GI50 (SK-MEL-28 [10]): 8.1 nM
DC50 [11]: 0.039 nM
Emax [12]: 92%
GI50 (SK-MEL-5 [13]): 0.4 nM
GI50 (A549 [14]): 3.3 nM
Emax [15]: 98%
Activity [18]: Dose-Dependent Effect
Emax [19]: 96%
GI50 (NCI-H1793 [20]): 1 nM
GI50 (NCI-H647 [21]): 8.1 nM
Activity [22]: Dose-Dependent Effect
Activity [23]: Tde
GI50 (NCI-H1693 [24]): 0.2 nM
GI50 (NCI-H1299 [25]): 31 nM
GI50 (NCI-H838 [32]): 5 nM
GI50 (NCI-H1792 [34]): 17 nM
SMILES: Cc1ncsc1-c1ccc([C@H](C)NC(=O)[C@@H]2C[C@@H](O)CN2C(=O)[C@@H](c2cc(N3CCC(CN4CCC(O[C@H]5C[C@H](Oc6cccc(CN7C8CCC7CN(c7cc(-c9ccccc9O)nnc7N)C8)c6)C5)CC4)CC3)no2)C(C)C)cc1
Imax (SK-MEL-28 [3]): 92%
Imax (NCI-H1975 [7]): 50%
Imax [16]: 84%
Imax (NCI-H1792 [17]): 69%
Imax (NCI-H1693 [26]): 82%
Imax (NCI-H1793 [27]): 67%
Imax (A549 [28]): 52%
Imax (SK-MEL-5 [29]): 96%
Imax (NCI-H1944 [30]): 87%
Imax (NCI-H647 [31]): 68%
Imax (NCI-H838 [33]): 93%
GI50 [35]: 0.3 nM
Imax (NCI-H1299 [36]): 68%

Kd [37]: 417 nM
SMILES: CN1CCN(/C=C2\CCn3c2nc(=O)c2c(Cl)cccc23)CC1

Kd [37]: 12.8 nM
Kd [38]: 10 nM
SMILES: Cn1cc(-c2cc(-c3ccccc3O)nnc2N)cn1
